Common to all, as to experiment: Dose-response to palbociclib, CyQUANT NF cell proliferation after 4 days
Common to all, as to format: cell-based

The subject of one assay is ZR751. The following applies: Homo sapiens, ZR-75-1. How it is done: (§1) The inventors next generated experimental cell lines models with acquired resistance to palbociclib derived from commercially available breast cancer cell lines MCF7 and T47D (ATCC), which were cultured according to supplier's recommendation. An MCF7-derived palbociclib-resistant (MCF7-PR) and a T47D-derived palbociclib-resistant (T47D-PR) cell lines were established by treating MCF7 and T47D with palbociclib for 6 months, starting at low concentration (1 nM) and increasing them at each passage until reaching 1 µM). MCF7-PR and T47D-PR cells were maintained in complete medium with 500 nM of palbociclib. The IC50 of sensitive MCF7 and T47D as well as derived palbociclib-resistant MCF7-PR and T47D-PR cell lines was evaluated by seeding 5000 tumor cells per well in 96-well plates and adding the following day increasing doses of Palbociclib. Proliferation was assessed after 4 days with CyQUANT NF Cell Proliferation (ThermoFisher Scientific) according to manufacturer's instructions. Fluorescence measurements were taken using FL800 Fluorescence plate reader with excitation at 485 nm and emission detection at 520 nm. Surviving fraction was calculated relative to untreated control cells using the formula: % Cell viability = (treated/untreated)*100 and IC^50 values were calculated with a non-linear regression model using GraphPad PRISM software.
(§2) Next, FGFR4-depletion was induced by means of stable shRNA expression and confirmed by Western blotting using standard procedures. Specifically, sensitive MCF7 and resistant MCFR7-PR and ZR751 were infected with two independent stable FGFR4 shRNAs (shFGFR4#1 and shFGFR4#2) and, as a control, a non-targeting scramble shRNA (shControl) (Fig.2C-2D). Response to palbociclib was evaluated by incubating the cells with increasing concentrations of palbociclib as described above.
In order to validate FGFR4 as a driver of CDK4/6i resistance, the inventors developed ZR751 cells that overexpressed wild-type FGFR4 (FGFR4wt) or constitutively active FGFR4 (FGFR4 Y367C) (Roidl et al., 2010). Control cells were infected with the backbone vector expressing red fluorescent protein (RFP).

Another assay concerns T47D. The following applies: Homo sapiens; parental sensitive T47D. How it is done: as §1
Another assay relates to T47D-PR. The following applies: palbociclib-resistant T47D-PR. How it is done: as §1
A further assay relates to MCF7. As to conditions: Homo sapiens; parental sensitive MCF7. As to the method:
as §1

Another assay concerns MCF7-PR. How it is done:
as §1, §2

pIC50: −log10 of the molar value. Read-outs that look alike come from different tables or passages of the source.

One may read the pIC50 as the IC50 on a negative log10 scale, so that one unit is a factor of ten. For the compound `CC(=O)c1c(C)c2cnc(Nc3ccc(N4CCNCC4)cn3)nc2n(C2CCCC2)c1=O` [palbociclib], the pIC50 in the assay with ZR751 (FGFR4 knockdown shFGFR4#1, read-out: IC50 ZR751 shFGFR4#1) was 7.10; in the assay on ZR751 (FGFR4 knockdown shFGFR4#2, read-out: IC50 ZR751 shFGFR4#2) it was 6.90; in the assay with ZR751 (control cells with backbone vector expressing RFP, read-out: IC50 ZR751 RFP), 6.45; in the assay with ZR751 (non-targeting scramble shRNA, read-out: IC50 ZR751 shControl) it was 5.42; with ZR751 (overexpressing wild-type FGFR4, read-out: IC50 ZR751 FGFR4wt), approximately 2.38; in the assay on T47D, 7.30. The negative logarithm of the IC50 (pIC50) in the assay on T47D-PR is 5.74; in the assay with MCF7, 6.60; with MCF7-PR (FGFR4 knockdown shFGFR4#1, read-out: IC50 MCF7-PR shFGFR4#1), 6.24; in the assay with MCF7-PR (FGFR4 knockdown shFGFR4#2, read-out: IC50 MCF7-PR shFGFR4#2), 6.35; in the assay with MCF7-PR (non-targeting scramble shRNA, read-out: IC50 MCF7-PR shControl), 5.81; with MCF7-PR (palbociclib-resistant MCF7-PR, read-out: IC50 MCF7-PR), 5.70.

For the origin of these results see patent EP4509142A1, “FGFR4 AS TARGET IN CANCER TREATMENT” (Ona Therapeutics S.L., priority 2023, dated 2025).
